Data published in paper PMC10349134, “The RNA-binding protein LRPPRC promotes resistance to CDK4/6 inhibition in lung cancer” (Nature Communications, 2023).

Biological target: T1, LRPPRC (endogenous, A549 cells) (Homo sapiens, UniProt P42704)
T1 construct: endogenous protein in A549 lung adenocarcinoma cells; no tag
Test: cellular thermal shift assay (CETSA), immunoblot
Type: cell-based
Details: 40 μM GAA vs DMSO

For `Cc1cc2c(C(C)C)c(O)c(O)c(C=O)c2c(O)c1-c1c(C)cc2c(C(C)C)c(O)c(O)c(C=O)c2c1O` [GAA], the CETSA thermal stabilization was “GAA could increase the thermal stabilization of LRPPRC”.
